What was measured:
U2OS [1] = assay: drug sensitivity score (DSS) for viability; higher = more toxic; extreme values may be limits of the assay; conditions: 72 h
Calu-3 [2] = assay: as above; conditions: 72 h
Caco-2 [3] = assay: as above; conditions: 72 h
HepG2 [4] = assay: as above; conditions: 72 h
Vero E6 [5] = assay: as above; conditions: 72 h
[6] = test system: A549-ACE2 infected with SARS-CoV-2; assay: SARS-CoV-2 infection rate relative to DMSO; higher = more infection; conditions: 24 h
[7] = test system: A549-ACE2 infected with SARS-CoV-2; assay: cell count relative to DMSO; higher = less toxic; conditions: 24 h
[8] = test system: A549-ACE2 infected with SARS-CoV-2; assay: morphology score (similarity to uninfected cells); higher = more like uninfected cells; conditions: 24 h
U2OS [9] = assay: relative viability EC50 (midpoint between 100% and the lowest measured viability); higher = less toxic; conditions: 72 h
Calu-3 [10] = assay: as above; conditions: 72 h
Caco-2 [11] = assay: as above; conditions: 72 h
HepG2 [12] = assay: as above; conditions: 72 h
Vero E6 [13] = assay: as above; conditions: 72 h
A549-ACE2 [14] = assay: phospholipidosis EC50; higher = less potent phospholipidosis inducer
A549-ACE2 [15] = assay: drug-induced phospholipidosis relative to tamoxifen; higher = more phospholipidosis
U2OS [16] = assay: cell viability relative to DMSO; higher = less toxic; conditions: 72 h
Calu-3 [17] = assay: as above; conditions: 72 h
Caco-2 [18] = assay: as above; conditions: 72 h
HepG2 [19] = assay: as above; conditions: 72 h
Vero E6 [20] = assay: as above; conditions: 72 h

CNCc1ccc(C)c(NC(=O)c2ccc(Nc3nc(-c4ccccc4)c4ccccc4n3)cc2)c1
Conditions | drug sensitivity score | relative viability EC50 [nM]
Caco-2 [3] | 4.3 | –
Caco-2 [11] | – | 3000
Calu-3 [2] | 6.6 | –
Calu-3 [10] | – | 2480
HepG2 [4] | 5.4 | –
HepG2 [12] | – | 1810
U2OS [1] | 3.5 | –
U2OS [9] | – | 3210
Vero E6 [5] | 3.4 | –
Vero E6 [13] | – | 2940

Conditions | SARS-CoV-2 infection rate [%] | cell count [%] | cell viability [%] | morphology score | phospholipidosis EC50 [nM]
A549-ACE2 [14], 24 h | – | – | – | – | 1580
A549-ACE2 [14], 48 h | – | – | – | – | 1490
A549-ACE2 [14], 72 h | – | – | – | – | 2070
Caco-2 [18], 1 nM | – | – | 93.8 | – | –
Caco-2 [18], 10 nM | – | – | 99.5 | – | –
Caco-2 [18], 100 nM | – | – | 90.1 | – | –
Caco-2 [18], 1000 nM | – | – | 98.3 | – | –
Caco-2 [18], 10000 nM | – | – | 25.4 | – | –
Calu-3 [17], 1 nM | – | – | 96.6 | – | –
Calu-3 [17], 10 nM | – | – | 101 | – | –
Calu-3 [17], 100 nM | – | – | 102 | – | –
Calu-3 [17], 1000 nM | – | – | 92 | – | –
Calu-3 [17], 10000 nM | – | – | 4.1 | – | –
HepG2 [19], 1 nM | – | – | 107 | – | –
HepG2 [19], 10 nM | – | – | 104 | – | –
HepG2 [19], 100 nM | – | – | 105 | – | –
HepG2 [19], 1000 nM | – | – | 88.3 | – | –
HepG2 [19], 10000 nM | – | – | 36.8 | – | –
U2OS [16], 1 nM | – | – | 100 | – | –
U2OS [16], 10 nM | – | – | 101 | – | –
U2OS [16], 100 nM | – | – | 103 | – | –
U2OS [16], 1000 nM | – | – | 100 | – | –
U2OS [16], 10000 nM | – | – | 35.3 | – | –
Vero E6 [20], 1 nM | – | – | 101 | – | –
Vero E6 [20], 10 nM | – | – | 99.6 | – | –
Vero E6 [20], 100 nM | – | – | 100 | – | –
Vero E6 [20], 1000 nM | – | – | 98.2 | – | –
Vero E6 [20], 10000 nM | – | – | 42.1 | – | –
[6], 0.1 µM | 99 | – | – | – | –
[6], 0.3 µM | 86 | – | – | – | –
[6], 1 µM | 89 | – | – | – | –
[6], 3 µM | 24 | – | – | – | –
[7], 0.1 µM | – | 103 | – | – | –
[7], 0.3 µM | – | 101 | – | – | –
[7], 1 µM | – | 108 | – | – | –
[7], 3 µM | – | 127 | – | – | –
[8], 0.1 µM | – | – | – | 0.21 | –
[8], 0.3 µM | – | – | – | 0.36 | –
[8], 1 µM | – | – | – | 0.34 | –
[8], 3 µM | – | – | – | 0.88 | –

drug-induced phospholipidosis [%], A549-ACE2 [15]
Conditions | 0.3 µM | 0.833333 µM | 3.33333 µM | 6.66667 µM | 10 µM | 30 µM
24 h | 5.53 | 23.7 | 77.2 | 98.9 | 84.8 | 99.7
48 h | 5.67 | 17.1 | 89.4 | 102 | 92.4 | –
72 h | 1.97 | 13.2 | 86.2 | 99.1 | 115 | –

CN(Cc1ccc(C(C)(C)C)cc1)Cc1cccc2ccccc12 [butenafine]
Conditions | drug sensitivity score | relative viability EC50 [nM]
Caco-2 [3] | 0 | –
Caco-2 [11] | – | > 10000
Calu-3 [2] | 0 | –
Calu-3 [10] | – | > 10000
HepG2 [4] | 0 | –
HepG2 [12] | – | > 10000
U2OS [1] | 0 | –
U2OS [9] | – | > 10000
Vero E6 [5] | 0 | –
Vero E6 [13] | – | > 10000

Conditions | SARS-CoV-2 infection rate, [6] [%] | cell count, [7] [%] | cell viability, Caco-2 [18] [%] | cell viability, Calu-3 [17] [%] | cell viability, HepG2 [19] [%] | cell viability, U2OS [16] [%] | cell viability, Vero E6 [20] [%] | morphology score, [8]
1 nM | – | – | 95.3 | 100 | 106 | 94.6 | 92.8 | –
10 nM | – | – | 101 | 102 | 94.2 | 98 | 102 | –
100 nM | – | – | 92.8 | 98 | 103 | 96.9 | 95.5 | –
0.3 µM | 100 | 101 | – | – | – | – | – | 0.14
1000 nM | – | – | 92.5 | 94.5 | 102 | 96.3 | 102 | –
3 µM | 105 | 83 | – | – | – | – | – | -0.05
10 µM | 77 | 107 | – | – | – | – | – | 0.58
10000 nM | – | – | 93.6 | 98 | 105 | 96.1 | 97.4 | –
30 µM | 39 | 110 | – | – | – | – | – | 0.79

drug-induced phospholipidosis [%], A549-ACE2 [15]
Conditions | 0.3 µM | 0.833333 µM | 3.33333 µM | 6.66667 µM | 10 µM | 30 µM
24 h | 1.71 | -2.5 | 2.21 | -2.25 | 2.84 | 7.06
48 h | 1.14 | -3.77 | -1.99 | -1.09 | 3.04 | 15.1
72 h | 2.18 | -4.26 | -1.97 | -2.04 | 0.626 | 14.1

Reference: the supplement of paper PMC13380429
